For series [1], the system named is HCoV-NL63. Briefly: Primary antiviral screening (virus inhibition) in HCoV-NL63-infected LLC-MK2 cells. It counts as cell-based, Human coronavirus NL63. The following applies: for SI (=CC50/EC50): HCoV-NL63/LLC-MK2; for antiviral effect: HCoV-NL63/LLC-MK2, up to 25 µM. The method, then:
For antiviral activity, cells in 96-well plates were infected and treated with test compounds as indicated and incubated for 48–72 h. Cell viability was quantified by WST (EZ-Cytox) at 450 nm on the same reader. Cytoprotective effect was calculated by normalizing to infected DMSO controls and converting to percent protection: % Protection = ((V_drug + virus − V_virus-only)/(V_mock − V_virus-only)) × 100.
We screened 11 oxazole-4-carboxamide derivatives (Figure 1) against HCoV-NL63 in LLC-MK2 cells and quantified antiviral activity and cytotoxicity (Figure 2). Several derivatives inhibited NL63 with distinct selectivity profiles. […] Visible crystals or precipitates formed at ≥50 µM without loss of viability or morphological change; therefore, downstream assays were performed at ≤25 µM.

Series [2] can be described thus: Cytotoxicity (EZ-Cytox WST) in LLC-MK2 cells. It is filed as cell-based. As to conditions: rhesus monkey, 72 h exposure. The method, then:
Cells were seeded at 2 × 10^4 cells per well in 96-well plates and, after overnight attachment, exposed to test compounds for 72 h in maintenance medium. The final DMSO concentration was ≤0.1% (v/v) for all conditions, including vehicle controls. Cell viability was quantified using EZ-Cytox WST reagent (DoGenBio, Seoul, Republic of Korea) according to the manufacturer’s instructions; absorbance was read at 450 nm on a SpectraMax i3x microplate reader (Molecular Devices, San Jose, CA, USA). Viability for each well was normalized to the mean of vehicle-treated (mock) controls on the same plate and expressed as percent viability. Each condition included technical replicates (n = 3) per experiment. Concentration–response data from ≥3 independent experiments were fit to a four-parameter logistic (4PL) model in GraphPad Prism 10.1.2 (GraphPad Software, San Diego, CA, USA) (log10-transformed concentrations; bottom and top unconstrained).

Series [3] concerns HCoV-NL63. Briefly: Combination (concentration matrix, ZIP synergy) HCoV-NL63/LLC-MK2. It counts as cell-based, Human coronavirus NL63. The following applies: HCoV-NL63/LLC-MK2, alone. The method, then: Concentration matrices were generated within the non-cytotoxic range for KB-2777 + nirmatrelvir (HCoV-NL63/LLC-MK2) and KB-2777 + GS-441524 (HCoV-OC43/Vero E6). Antiviral activity was measured at 48 h post-infection. Interaction surfaces and ZIP synergy scores were computed using SynergyFinder (v3) with default normalization (virus + DMSO control = 0% inhibition). Heatmaps and δ-surfaces were exported directly from SynergyFinder.

Setting [4] is: Human coronavirus NL63, LLC-MK2, HCoV-NL63/LLC-MK2, primary screen, read-out: EC50.
Where [5] appears, read: HCoV-NL63/LLC-MK2, primary screen, read-out: EC50.
[6] abbreviates: Human coronavirus NL63, LLC-MK2, HCoV-NL63/LLC-MK2, primary screen.

Experimental findings from PMC12655682, “Screening-Identified Oxazole-4-Carboxamide KB-2777 Exhibits In Vitro Anti-Coronavirus Activity” (Pharmaceutics, 2025) are described below.

Like-named read-outs stand apart in the source and are kept apart here.

As a reminder, the EC50 is the concentration that produces a half-maximal response. For orientation: CC50 means the concentration at which the toxic effect on the cells reaches its halfway point. Lower therefore signals harm at low concentration. `COC(=O)[C@H](C)NC(=O)c1nc(-c2ccc(C(F)(F)F)cc2)oc1-c1cccc(OC)c1` [KB-2767]: in series [1], the “SI (=CC50/EC50)” value is 3.33. Also, the EC50 in series [1] (setting [4]) was found to be 9.26 µM. The compound also had a half-maximal cytotoxic concentration (CC50) at 72 h in series [2] of 30.8 µM.

In the case of `COc1cccc(-c2oc(-c3ccc(C(F)(F)F)cc3)nc2C(=O)N[C@@H](C)C(N)=O)c1` [KB-2775], the antiviral effect entry in series [1] is given as “no detectable antiviral effect”. Moreover, the CC50 at 72 h in series [2] is 3.12 µM.

Regarding `COC(=O)[C@H](CC(C)C)NC(=O)c1nc(-c2ccc(C(F)(F)F)cc2)oc1-c1cccc(SC)c1` [KB-2768], the “SI (=CC50/EC50)” value in series [1] was found to be 5.12. Moreover, the EC50 in series [1] (setting [4]) is 6.66 µM. Moreover, the half-maximal cytotoxic concentration (CC50) at 72 h in series [2] was determined as 34.1 µM.

With `COC(=O)[C@H](C)NC(=O)c1nc(-c2ccc(C(F)(F)F)cc2)oc1-c1ccc(SC)cc1` [KB-2738], in series [1], the “SI (=CC50/EC50)” value is 2.84. Moreover, the EC50 in series [1] (setting [4]) turned out to be 7.7 µM. This compound gave a 50% cytotoxic concentration (CC50) at 72 h in series [2] of 21.8 µM.

For the compound `CC(C)(C)[C@H](NC(=O)C(F)(F)F)C(=O)N1C[C@H]2[C@@H]([C@H]1C(=O)N[C@H](C#N)C[C@@H]1CCNC1=O)C2(C)C` [nirmatrelvir], the “antiviral activity of the single agent in the combination assay” value in series [3] was “limited activity”.

Take `COC(=O)C(CC1CCNC1=O)NC(=O)c1nc(-c2ccc(C(F)(F)F)cc2)oc1-c1cccc(SC)c1` (stereo not shown) [KB-2772]: the antiviral effect result in series [1] is recorded as “no detectable antiviral effect”. Also, the CC50 at 72 h in series [2] was over 50 µM.

Take `CSc1cccc(-c2oc(-c3ccc(C(F)(F)F)cc3)nc2C(=O)N[C@@H](C)C(N)=O)c1` [KB-2769]: the “SI (=CC50/EC50)” value in series [1] was under 2.67. Moreover, the EC50 in series [1] (setting [4]) was 2.34 µM. For the same compound, the CC50 at 72 h in series [2] is under 6.25 µM.

Consider `COC(=O)[C@H](C)NC(=O)c1nc(-c2ccc(C(F)(F)F)cc2)oc1-c1cccc(SC)c1` [KB-2742], for which the “SI (=CC50/EC50)” value in series [1] is under 5.40. Also, in series [1] (setting [4]), the half-maximal effective concentration (EC50) stood at 4.63 µM. For the same compound, the CC50 at 72 h in series [2] is under 25 µM.

On to `COC(=O)[C@H](CC(C)C)NC(=O)c1nc(-c2ccc(C(F)(F)F)cc2)oc1-c1cccc(OC)c1` [KB-2774], for which the concentration giving a half-maximal response (EC50) in series [1] (setting [5]) is 4.39 µM; in series [1] (setting [6]) it was 4 to 5 µM. Moreover, in series [2], the CC50 at 72 h was 25.2 µM.

In the case of `CSc1cccc(-c2oc(-c3ccc(C(F)(F)F)cc3)nc2C(=O)N[C@@H](CC(C)C)C(N)=O)c1` [KB-2771], the results for the half-maximal effective concentration (EC50) in series [1] (setting [5]) and in series [1] (setting [6]) were 4.27 µM and 4 to 5 µM, respectively. In series [2], the 50% cytotoxic concentration (CC50) at 72 h was under 25 µM.

As for `COC(=O)C(CC1CCNC1=O)NC(=O)c1nc(-c2ccc(C(F)(F)F)cc2)oc1-c1cccc(OC)c1` (stereo not shown) [KB-2773], the antiviral effect result in series [1] is “no detectable antiviral effect”. The CC50 at 72 h in series [2] is under 25 µM.
